These results are taken from ChEMBL document CHEMBL1140250, “6-Aryl-4-methylsulfanyl-2H-pyran-2-one-3-carbonitriles as PPAR-gamma activators” (Bioorg Med Chem Lett, 2005).

Assay type in all cases: functional
The target in assay [1] is T1, Peroxisome proliferator-activated receptor gamma (Homo sapiens) (UniProt P37231).
T1 sequence (whole entry): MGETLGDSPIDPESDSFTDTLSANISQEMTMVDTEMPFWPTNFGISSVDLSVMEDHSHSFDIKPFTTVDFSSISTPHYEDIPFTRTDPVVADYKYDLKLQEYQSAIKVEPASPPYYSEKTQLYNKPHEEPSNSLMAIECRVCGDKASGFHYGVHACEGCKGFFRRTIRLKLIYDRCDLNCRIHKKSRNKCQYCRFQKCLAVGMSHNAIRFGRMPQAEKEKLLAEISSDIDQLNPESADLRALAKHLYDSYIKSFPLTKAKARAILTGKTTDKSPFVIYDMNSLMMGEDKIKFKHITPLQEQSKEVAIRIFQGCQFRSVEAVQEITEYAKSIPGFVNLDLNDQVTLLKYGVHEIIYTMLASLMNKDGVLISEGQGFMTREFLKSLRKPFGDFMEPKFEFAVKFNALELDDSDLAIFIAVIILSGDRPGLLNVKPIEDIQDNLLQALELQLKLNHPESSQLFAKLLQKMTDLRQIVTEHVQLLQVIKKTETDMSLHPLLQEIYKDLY
The experiment in a line: In vitro agonist activity against human PPAR-gamma receptor in transactivation assay at 1000 nM.

Assay [2] addresses T1, Peroxisome proliferator-activated receptor gamma (Homo sapiens). The experiment in a line: In vitro agonist activity against human PPAR-gamma in transactivation assay at 100 nM.
The target is the same in assay [3]. Description: In vitro agonist activity against human PPAR-gamma in transactivation assay at 10 nM.

In the case of `C[S+]([O-])CCOc1ccc(-c2cc([S+](C)[O-])c(C#N)c(=O)o2)cc1` (centres undefined), the Fold activation in assay [1] is 27; in assay [2], 14; in assay [3], 9.
Regarding `CSc1cc(-c2ccc(OCN3CCOCC3)cc2)oc(=O)c1C#N`, the Fold activation is 5 in assay [1], 4 in assay [2] and 3 in assay [3].
For `CSCCOc1ccc(-c2cc(SC)c(C#N)c(=O)o2)cc1` the same measures were 60, 22 and 12.
`COC(=O)c1c(SC)cc(-c2ccc(OCCN3CCCCC3)cc2)oc1=O`: the results for the Fold activation in assay [1], in assay [2] and in assay [3] were 17, 3 and 3, respectively.
Consider `CCSCCOc1ccc(-c2cc(SCC)c(C#N)c(=O)o2)cc1`, for which the Fold activation amounted to 30 in assay [1], 11 in assay [2] and 7 in assay [3].
For `CN(CCOc1ccc(CC2SC(=O)NC2=O)cc1)c1ccccn1` (centres undefined) the same measures were 176, 28 and 9.
Consider `CSc1cc(-c2ccc(OCCSc3ccccc3)cc2)oc(=O)c1C#N`, for which the Fold activation in assay [1] came out at 14; in assay [2] it was 5; in assay [3] it was 3.
For the molecule `CSc1cc(-c2ccc(OCCN(C)Cc3ccccc3)cc2)oc(=O)c1C#N`, the Fold activation in assay [1] amounted to 7; in assay [2], 4; in assay [3], 5.
For the molecule `CSc1cc(-c2ccc(OCCN3CCCCC3)cc2)oc(=O)c1C#N`, the Fold activation in assay [1] came to 16; in assay [2], 2; in assay [3] it was 3.
For the molecule `CSc1cc(-c2ccc(OCCN(C)C)cc2)oc(=O)c1C#N`, the Fold activation is 7 in assay [1], 6 in assay [2] and 4 in assay [3].
`COC(=O)c1c(SC)cc(-c2ccc(OCCSC)cc2)oc1=O`: the Fold activation in assay [1] came out at 44; in assay [2], 13; in assay [3] it was 9.
In the same order, the values of `CSc1cc(-c2ccc(OCCN(Cc3ccccc3)SC)cc2)oc(=O)c1C#N` are 7, 6 and 4.
In the case of `CSc1cc(-c2ccc(OCCc3nccc4c3CCCC4)cc2)oc(=O)c1C#N`, the Fold activation in assay [1] stood at 19; in assay [2], 5; in assay [3] it was 4.
